Test results reported in patent EP3120851A1, “4-AMINO-6-(2,6-DICHLOROPHENYL)-8-METHYL-2-(PHENYLAMINO)-PYRIDO[2,3-D]PYRIMIDIN-7(8H)-ONE FOR TREATMENT OF SOLID CANCERS” (Pangaea Biotech S.L., priority 2015, dated 2017).

Key:
Assay in all cases: radiometric protein kinase assay (33PanQinase Activity Assay)
Format in all cases: biochemical
Details in all cases: singlicate, read-out: residual activity
EGF-R wt = biological target: T1, EGF-R wt (Homo sapiens, UniProt P00533)
T1 construct: GST or His (not specified per kinase); purchased ProQinase (panel service); host or cells: Sf9 insect cells or E. coli
Description: (§1) In a first experiment, the kinase inhibition profile of the compound of formula (1) was evaluated at Proqinase (http://www.proqinase.com) by measuring residual activity values at a concentration of 10 µM of the test compound in singlicate in front of the following kinases: ABL2, EPHA3, CSF1-R, DDR2 wt, DDR2 N456 S, EGF-R d746-750, EGF-R d747-752/P753S, EGF-R G719C, EGF-R G719S, EGF-R L858R, EGF-R L861Q, EGF-R wt, EPHA1, EPHA2, EPHB1, ERBB4, LCK, MINK1, RAF1 Y340D/Y341D (untagged), RIPK2, STK17A. In a second experiment, the kinase inhibition profile of the compound of formula (1) was evaluated at Proqinase (http://www.proqinase.com) by measuring residual activity values at a concentration of 0.5 and 10 µM of the test compound in singlicate in front of a panel of 300 kinases using the following protocol:
(§2) The compounds were dissolved to 1 x 10^-03 M stock solutions in 100% DMSO. Subsequently, 100 µl of each stock solution were transferred into wells A3-F12 of a microtiter plate ("master plate"). Wells A1-F2 were filled with 100 µl 100% DMSO as controls. 5 x 10 µl of the master plate were aliquoted into 5 copy plates, which were stored at -20° Celsius until use. For the testing of each group of up to 8 kinases, one copy plate was used.
(§3) In the process, 90 µl H2O were added to each well of a copy plate. To minimize precipitation, the H2O was added to each well only a few minutes before the transfer of the compound solutions into the assay plates. The plate was shaken thoroughly, resulting in a "compound dilution plate" with a compound concentration of 1 x 10^-04 M/10 % DMSO. This plate was used for the transfer of 5 µl compound solution into the assay plates. The final volume of the assay was 50 µl. All compounds were tested at 1 x 10^-05 M in singlicate. The final DMSO concentration in the reaction cocktails was 1 % in all cases. The compound dilution plates were disposed at the end of each working day.
(§4) A radiometric protein kinase assay (^33PanQinase® Activity Assay) was used for measuring the kinase activity of the corresponding protein kinases. All kinase assays were performed in 96-well FlashPlatesTM from Perkin Elmer (Boston, MA, USA) in a 50 µl reaction volume. The reaction cocktail was pipetted in 4 steps in the following order: • 10 µl of non-radioactive ATP solution (in H2O) • 25 µl of assay buffer/ [γ-33P]-ATP mixture • 5 µl of test sample in 10% DMSO • 10 µl of enzyme/substrate mixture
(§5) The protein kinase reaction cocktails were incubated at 30°C for 60 minutes. The reaction was stopped with 50 µl of 2 % (v/v) H3PO4, plates were aspirated and washed two times with 200 µl 0.9 % (w/v) NaCl. All assays were performed with a BeckmanCoulter Biomek 2000/SL robotic system. Incorporation of ^33Pi (counting of "cpm") was determined with a microplate scintillation counter (Microbeta, Wallac).
(§6) All protein kinase assays were performed with a BeckmanCoulter Core robotic system.
(§7) All protein kinases provided by ProQinase were expressed in Sf9 insect cells or in E.coli as recombinant GST-fusion proteins or His-tagged proteins. All kinases were produced from human cDNAs and purified by either GSH-affinity chromatography or immobilized metal. Affinity tags were removed from a number of kinases during purification. The purity of the protein kinases was examined by SDS-PAGE/Coomassie staining, the identity was checked by mass spectroscopy.
(§8) Kinases from external vendors (CAR = Carna Biosciences Inc.; INV = Life Technologies (Invitrogen Corporation); MIL = Merck-Millipore (Millipore Corporation)) were expressed, purified and quality-controlled by virtue of the vendors readings.
(§9) For each kinase, the median value of the cpm of six wells of column 1 of each assay plate was defined as "low control" (n=6). This value reflects unspecific binding of radioactivity to the plate in the absence of a protein kinase but in the presence of the substrate. […]

EGF-R L858R = biological target: T2, EGF-R L858R (Homo sapiens, UniProt P00533, L858R)
T2 construct: GST or His (not specified per kinase); purchased ProQinase (panel service); host or cells: Sf9 insect cells or E. coli
Description: as §1, §2, §3, §4, §5, §6, §7, §8, §9

DDR2 N456S = biological target: T3, DDR2 N456S (Homo sapiens, UniProt Q16832, N456S)
T3 construct: GST or His (not specified per kinase); purchased ProQinase (panel service); host or cells: Sf9 insect cells or E. coli
T3 sequence (Q16832 22-855 N456S): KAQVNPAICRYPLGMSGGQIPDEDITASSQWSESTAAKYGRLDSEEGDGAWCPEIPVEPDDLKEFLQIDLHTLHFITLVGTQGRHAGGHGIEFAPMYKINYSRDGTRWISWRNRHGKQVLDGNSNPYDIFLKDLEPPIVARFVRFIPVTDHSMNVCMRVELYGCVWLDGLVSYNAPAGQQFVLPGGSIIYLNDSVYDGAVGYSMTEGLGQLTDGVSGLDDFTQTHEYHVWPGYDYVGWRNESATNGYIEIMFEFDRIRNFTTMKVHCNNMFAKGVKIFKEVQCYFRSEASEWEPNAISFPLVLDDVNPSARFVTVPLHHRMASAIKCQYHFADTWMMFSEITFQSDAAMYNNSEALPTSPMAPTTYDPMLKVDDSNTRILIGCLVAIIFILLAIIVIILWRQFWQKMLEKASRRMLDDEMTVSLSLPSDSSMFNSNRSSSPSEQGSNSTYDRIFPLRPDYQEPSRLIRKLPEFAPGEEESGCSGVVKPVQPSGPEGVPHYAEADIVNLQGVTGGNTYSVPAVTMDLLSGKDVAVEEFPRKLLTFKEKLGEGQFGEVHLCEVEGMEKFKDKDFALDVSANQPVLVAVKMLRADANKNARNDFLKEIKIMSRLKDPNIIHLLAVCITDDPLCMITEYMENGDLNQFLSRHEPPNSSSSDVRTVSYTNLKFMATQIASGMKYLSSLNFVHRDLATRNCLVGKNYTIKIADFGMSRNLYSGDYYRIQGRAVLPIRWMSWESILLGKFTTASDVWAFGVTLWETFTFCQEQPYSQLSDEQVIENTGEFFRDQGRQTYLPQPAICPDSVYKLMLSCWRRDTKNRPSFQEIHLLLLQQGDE
Description: as §1, §2, §3, §4, §5, §6, §7, §8, §9

EPHA3 = biological target: T4, EPHA3 (Homo sapiens, UniProt P29320)
T4 construct: GST or His (not specified per kinase); purchased ProQinase (panel service); host or cells: Sf9 insect cells or E. coli
Description: as §1, §2, §3, §4, §5, §6, §7, §8, §9

ABL2 = biological target: T5, ABL2 (Homo sapiens, UniProt P42684)
T5 construct: GST or His (not specified per kinase); purchased ProQinase (panel service); host or cells: Sf9 insect cells or E. coli
Description: as §1, §2, §3, §4, §5, §6, §7, §8, §9

DDR2 wt = biological target: T6, DDR2 wt (Homo sapiens, UniProt Q16832)
T6 construct: GST or His (not specified per kinase); purchased ProQinase (panel service); host or cells: Sf9 insect cells or E. coli
T6 sequence (Q16832 22-855): as the sequence (Q16832 22-855 N456S) above, with S435N counted along it
Description: as §1, §2, §3, §4, §5, §6, §7, §8, §9

EPHB1 = biological target: T7, EPHB1 (Homo sapiens, UniProt P54762)
T7 construct: GST or His (not specified per kinase); purchased ProQinase (panel service); host or cells: Sf9 insect cells or E. coli
T7 sequence (P54762 18-984): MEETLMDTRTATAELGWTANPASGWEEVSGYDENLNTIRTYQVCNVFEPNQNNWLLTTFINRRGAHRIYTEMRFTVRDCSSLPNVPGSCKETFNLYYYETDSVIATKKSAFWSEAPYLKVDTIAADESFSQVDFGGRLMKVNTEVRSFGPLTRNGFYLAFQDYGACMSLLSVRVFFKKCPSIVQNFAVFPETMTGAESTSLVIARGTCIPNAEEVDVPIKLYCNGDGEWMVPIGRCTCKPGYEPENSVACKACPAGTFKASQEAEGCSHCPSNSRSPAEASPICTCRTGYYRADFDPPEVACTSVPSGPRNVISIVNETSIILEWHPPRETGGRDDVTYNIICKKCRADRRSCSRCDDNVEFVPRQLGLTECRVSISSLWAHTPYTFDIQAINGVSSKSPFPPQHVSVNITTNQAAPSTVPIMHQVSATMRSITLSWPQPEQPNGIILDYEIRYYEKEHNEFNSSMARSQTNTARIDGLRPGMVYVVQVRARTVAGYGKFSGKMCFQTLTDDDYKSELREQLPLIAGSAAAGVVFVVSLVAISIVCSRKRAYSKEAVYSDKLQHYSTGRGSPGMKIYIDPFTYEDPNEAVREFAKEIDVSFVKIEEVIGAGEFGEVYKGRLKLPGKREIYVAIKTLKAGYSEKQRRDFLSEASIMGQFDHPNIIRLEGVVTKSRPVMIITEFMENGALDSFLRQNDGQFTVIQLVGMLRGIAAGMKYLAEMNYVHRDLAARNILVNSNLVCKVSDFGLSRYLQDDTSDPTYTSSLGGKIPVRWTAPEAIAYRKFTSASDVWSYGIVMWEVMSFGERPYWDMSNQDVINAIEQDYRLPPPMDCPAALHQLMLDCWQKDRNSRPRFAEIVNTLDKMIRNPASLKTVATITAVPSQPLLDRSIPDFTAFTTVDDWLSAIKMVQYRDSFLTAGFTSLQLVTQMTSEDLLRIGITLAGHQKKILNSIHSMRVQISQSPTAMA
Description: as §1, §2, §3, §4, §5, §6, §7, §8, §9

LCK = biological target: T8, LCK (Homo sapiens, UniProt P06239)
T8 construct: GST or His (not specified per kinase); purchased ProQinase (panel service); host or cells: Sf9 insect cells or E. coli
T8 sequence (P06239 whole entry): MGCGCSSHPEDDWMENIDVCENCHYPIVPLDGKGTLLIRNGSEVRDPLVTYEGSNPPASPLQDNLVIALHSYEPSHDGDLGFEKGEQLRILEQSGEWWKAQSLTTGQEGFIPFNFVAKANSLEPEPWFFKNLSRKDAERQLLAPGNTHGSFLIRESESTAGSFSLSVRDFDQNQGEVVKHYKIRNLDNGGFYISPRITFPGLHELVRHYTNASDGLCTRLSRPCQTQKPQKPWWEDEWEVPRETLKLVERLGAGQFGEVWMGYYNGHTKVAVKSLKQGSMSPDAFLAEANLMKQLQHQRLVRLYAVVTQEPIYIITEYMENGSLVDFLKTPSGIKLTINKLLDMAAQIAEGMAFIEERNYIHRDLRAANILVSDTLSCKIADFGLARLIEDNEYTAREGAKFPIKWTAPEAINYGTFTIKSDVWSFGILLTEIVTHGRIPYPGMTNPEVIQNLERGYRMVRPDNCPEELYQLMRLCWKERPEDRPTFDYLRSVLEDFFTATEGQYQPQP
Description: as §1, §2, §3, §4, §5, §6, §7, §8, §9

EGF-R G719C = biological target: T9, EGF-R G719C (Homo sapiens, UniProt P00533, G719C)
T9 construct: GST or His (not specified per kinase); purchased ProQinase (panel service); host or cells: Sf9 insect cells or E. coli
T9 sequence (P00533 25-1210 G719C): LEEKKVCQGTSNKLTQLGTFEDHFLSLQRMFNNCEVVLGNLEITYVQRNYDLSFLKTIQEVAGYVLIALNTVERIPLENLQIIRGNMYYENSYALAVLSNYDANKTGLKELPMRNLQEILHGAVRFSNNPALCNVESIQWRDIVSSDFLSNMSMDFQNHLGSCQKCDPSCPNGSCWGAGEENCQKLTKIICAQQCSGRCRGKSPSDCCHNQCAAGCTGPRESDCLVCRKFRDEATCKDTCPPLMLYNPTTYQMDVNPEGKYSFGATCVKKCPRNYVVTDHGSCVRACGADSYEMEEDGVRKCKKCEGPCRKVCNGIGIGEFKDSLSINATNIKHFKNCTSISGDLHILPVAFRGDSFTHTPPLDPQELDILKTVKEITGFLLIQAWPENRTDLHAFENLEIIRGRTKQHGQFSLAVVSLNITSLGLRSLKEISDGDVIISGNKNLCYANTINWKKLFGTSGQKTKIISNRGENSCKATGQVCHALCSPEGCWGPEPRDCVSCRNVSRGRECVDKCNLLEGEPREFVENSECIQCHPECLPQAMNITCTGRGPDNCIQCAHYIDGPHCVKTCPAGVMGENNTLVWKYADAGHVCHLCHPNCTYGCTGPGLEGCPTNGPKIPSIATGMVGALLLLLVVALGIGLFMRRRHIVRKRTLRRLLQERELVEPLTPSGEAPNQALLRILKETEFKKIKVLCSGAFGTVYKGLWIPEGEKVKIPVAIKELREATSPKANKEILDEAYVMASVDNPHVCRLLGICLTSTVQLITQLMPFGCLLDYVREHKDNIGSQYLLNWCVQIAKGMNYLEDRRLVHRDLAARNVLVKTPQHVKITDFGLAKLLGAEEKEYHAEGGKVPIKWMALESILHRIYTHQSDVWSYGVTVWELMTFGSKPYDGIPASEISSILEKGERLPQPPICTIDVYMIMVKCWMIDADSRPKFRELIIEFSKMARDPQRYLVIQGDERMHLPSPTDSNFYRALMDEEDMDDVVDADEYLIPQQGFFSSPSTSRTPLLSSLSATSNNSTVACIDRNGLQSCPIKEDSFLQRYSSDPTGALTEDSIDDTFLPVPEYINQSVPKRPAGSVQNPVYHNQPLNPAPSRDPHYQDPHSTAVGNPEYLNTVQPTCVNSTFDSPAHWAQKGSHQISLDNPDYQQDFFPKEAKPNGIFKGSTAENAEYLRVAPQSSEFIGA
Description: as §1, §2, §3, §4, §5, §6, §7, §8, §9

ERBB4 = biological target: T10, ERBB4 (Homo sapiens, UniProt Q15303)
T10 construct: GST or His (not specified per kinase); purchased ProQinase (panel service); host or cells: Sf9 insect cells or E. coli
Description: as §1, §2, §3, §4, §5, §6, §7, §8, §9

EPHA2 = biological target: T11, EPHA2 (Homo sapiens, UniProt P29317)
T11 construct: GST or His (not specified per kinase); purchased ProQinase (panel service); host or cells: Sf9 insect cells or E. coli
T11 sequence (P29317 24-976): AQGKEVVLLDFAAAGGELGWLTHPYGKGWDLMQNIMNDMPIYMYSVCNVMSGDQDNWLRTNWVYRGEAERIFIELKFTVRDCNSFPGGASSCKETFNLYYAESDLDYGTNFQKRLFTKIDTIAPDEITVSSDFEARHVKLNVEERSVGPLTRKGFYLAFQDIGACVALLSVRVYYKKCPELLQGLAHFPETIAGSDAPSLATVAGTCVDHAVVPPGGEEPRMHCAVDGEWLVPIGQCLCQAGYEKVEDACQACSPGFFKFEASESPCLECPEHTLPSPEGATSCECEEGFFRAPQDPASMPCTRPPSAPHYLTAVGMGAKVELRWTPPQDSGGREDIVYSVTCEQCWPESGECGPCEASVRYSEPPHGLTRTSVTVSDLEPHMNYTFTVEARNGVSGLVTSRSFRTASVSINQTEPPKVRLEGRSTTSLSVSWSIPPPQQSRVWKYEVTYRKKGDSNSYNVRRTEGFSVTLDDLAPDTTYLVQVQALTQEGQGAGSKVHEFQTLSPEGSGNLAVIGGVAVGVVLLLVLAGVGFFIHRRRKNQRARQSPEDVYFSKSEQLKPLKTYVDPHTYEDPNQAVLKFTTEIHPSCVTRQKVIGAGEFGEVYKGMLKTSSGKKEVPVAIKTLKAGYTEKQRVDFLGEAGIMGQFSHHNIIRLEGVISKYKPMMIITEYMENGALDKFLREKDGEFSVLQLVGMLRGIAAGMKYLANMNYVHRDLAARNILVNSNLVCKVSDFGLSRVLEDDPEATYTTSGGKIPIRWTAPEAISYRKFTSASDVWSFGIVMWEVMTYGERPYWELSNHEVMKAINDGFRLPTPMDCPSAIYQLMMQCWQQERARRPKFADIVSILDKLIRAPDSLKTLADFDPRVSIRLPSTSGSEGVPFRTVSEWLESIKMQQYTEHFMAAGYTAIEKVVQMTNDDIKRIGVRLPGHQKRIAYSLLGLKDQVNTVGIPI
Description: as §1, §2, §3, §4, §5, §6, §7, §8, §9

EGF-R G719S = biological target: T12, EGF-R G719S (Homo sapiens, UniProt P00533, G719S)
T12 construct: GST or His (not specified per kinase); purchased ProQinase (panel service); host or cells: Sf9 insect cells or E. coli
Description: as §1, §2, §3, §4, §5, §6, §7, §8, §9

EGF-R d747-752/P753S = biological target: T13, EGF-R d747-752/P753S (Homo sapiens, UniProt P00533, DEL747-752/P753S)
T13 construct: GST or His (not specified per kinase); purchased ProQinase (panel service); host or cells: Sf9 insect cells or E. coli
T13 sequence (P00533 with tags, fused parts or gaps DEL747-752/P753S limits assumed): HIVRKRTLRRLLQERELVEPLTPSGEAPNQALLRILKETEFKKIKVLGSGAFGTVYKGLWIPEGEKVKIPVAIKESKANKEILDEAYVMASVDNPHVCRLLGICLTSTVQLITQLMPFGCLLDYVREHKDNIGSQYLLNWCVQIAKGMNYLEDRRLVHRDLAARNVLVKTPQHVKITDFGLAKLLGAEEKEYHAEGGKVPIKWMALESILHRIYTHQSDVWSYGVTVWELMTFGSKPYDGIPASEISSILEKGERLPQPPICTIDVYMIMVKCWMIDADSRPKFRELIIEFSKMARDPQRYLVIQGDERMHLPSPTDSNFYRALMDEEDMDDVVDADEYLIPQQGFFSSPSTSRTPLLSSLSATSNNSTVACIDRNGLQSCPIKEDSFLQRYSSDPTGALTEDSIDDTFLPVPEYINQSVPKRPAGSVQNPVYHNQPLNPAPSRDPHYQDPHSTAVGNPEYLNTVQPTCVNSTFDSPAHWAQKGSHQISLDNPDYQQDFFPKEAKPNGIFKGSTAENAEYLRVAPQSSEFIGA
Description: as §1, §2, §3, §4, §5, §6, §7, §8, §9

EGF-R d746-750 = biological target: T14, EGF-R d746-750 (Homo sapiens, UniProt P00533, DEL746-750)
T14 construct: GST or His (not specified per kinase); purchased ProQinase (panel service); host or cells: Sf9 insect cells or E. coli
Description: as §1, §2, §3, §4, §5, §6, §7, §8, §9

Which remaining activity at 0.5 µM (EGF-R wt; 0.5 µM test compound) does the source give for `Cn1c(=O)c(-c2c(Cl)cccc2Cl)cc2c(N)nc(Nc3ccccc3)nc21` [Compound (1), 4-amino-6-(2,6-dichlorophenyl)-8-methyl-2-(phenylamino)-pyrido[2,3-d]pyrimidin-7(8H)-one] here?
Its remaining activity at 0.5 µM is 47%.

And the remaining activity at 10 µM (EGF-R wt; 10 µM test compound)?
The remaining activity at 10 µM was 16%.

What about the remaining activity at 0.5 µM (EGF-R L858R; 0.5 µM test compound) of the same compound?
The remaining activity at 0.5 µM was 49%.

What about the remaining activity at 10 µM (EGF-R L858R; 10 µM test compound) of the same compound?
Its remaining activity at 10 µM is 10%.

And the remaining activity at 0.5 µM (DDR2 N456S; 0.5 µM test compound)?
The remaining activity at 0.5 µM was 10%.

And the remaining activity at 10 µM (DDR2 N456S; 10 µM test compound)?
The remaining activity at 10 µM was 6%.

And the remaining activity at 0.5 µM (EPHA3; 0.5 µM test compound)?
Its remaining activity at 0.5 µM is 9%.

What about the remaining activity at 10 µM (EPHA3; 10 µM test compound) of the same compound?
The remaining activity at 10 µM was 36%.

And the remaining activity at 0.5 µM (ABL2; 0.5 µM test compound)?
The remaining activity at 0.5 µM was 44%.

What about the remaining activity at 10 µM (ABL2; 10 µM test compound) of the same compound?
The remaining activity at 10 µM was 13%.

And the remaining activity at 0.5 µM (DDR2 wt; 0.5 µM test compound)?
The remaining activity at 0.5 µM was 10%.

And the remaining activity at 10 µM (DDR2 wt; 10 µM test compound)?
The remaining activity at 10 µM was 4%.

What about the remaining activity at 0.5 µM (EPHB1; 0.5 µM test compound) of the same compound?
Its remaining activity at 0.5 µM is 57%.

And the remaining activity at 10 µM (EPHB1; 10 µM test compound)?
The remaining activity at 10 µM was 5%.

And the remaining activity at 0.5 µM (LCK; 0.5 µM test compound)?
The remaining activity at 0.5 µM was 50%.

And the remaining activity at 10 µM (LCK; 10 µM test compound)?
The remaining activity at 10 µM was 5%.

And the remaining activity at 0.5 µM (EGF-R G719C; 0.5 µM test compound)?
Its remaining activity at 0.5 µM is 29%.

What about the remaining activity at 10 µM (EGF-R G719C; 10 µM test compound) of the same compound?
Its remaining activity at 10 µM is 6%.

What about the remaining activity at 0.5 µM (ERBB4; 0.5 µM test compound) of the same compound?
The remaining activity at 0.5 µM was 52%.

And the remaining activity at 10 µM (ERBB4; 10 µM test compound)?
The remaining activity at 10 µM was 7%.

And the remaining activity at 0.5 µM (EPHA2; 0.5 µM test compound)?
Its remaining activity at 0.5 µM is 54%.

And the remaining activity at 10 µM (EPHA2; 10 µM test compound)?
The remaining activity at 10 µM was 9%.

What about the remaining activity at 0.5 µM (EGF-R G719S; 0.5 µM test compound) of the same compound?
The remaining activity at 0.5 µM was 39%.

And the remaining activity at 10 µM (EGF-R G719S; 10 µM test compound)?
The remaining activity at 10 µM was 3%.

And the remaining activity at 0.5 µM (EGF-R d747-752/P753S; 0.5 µM test compound)?
The remaining activity at 0.5 µM was 47%.

What about the remaining activity at 10 µM (EGF-R d747-752/P753S; 10 µM test compound) of the same compound?
Its remaining activity at 10 µM is 15%.

And the remaining activity at 0.5 µM (EGF-R d746-750; 0.5 µM test compound)?
The remaining activity at 0.5 µM was 28%.

What about the remaining activity at 10 µM (EGF-R d746-750; 10 µM test compound) of the same compound?
The remaining activity at 10 µM was 10%.
